# Values joined by “and” are separate entries in the source; they are usually repeats but may differ in a detail not shown here. Equal values may be shown once. Toxic doses and inconclusive results are not listed.
# Test system: L1210 leukemia ip in BDF1 mice, survival T/C
# Assay: NCI In Vivo Anticancer Drug Screen. Data for tumor model L1210 Leukemia (intraperitoneal) in B6D2F1 (BDF1) mice
# Conditions: endpoint: mean survival time, higher = longer survival
# How it was run: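 Antitumor effect is assessed in tumor-bearing animals. Survival in the compound arm is compared with a vehicle-dosed control arm and expressed as their quotient.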
# [1] = dose: 100.0 mg/kg/injection, schedule: Q01DX009 (ip), vehicle: Klucel (hydroxypropylcellulose) (HPC)
# [2] = dose: 100.0 mg/kg/injection, schedule: Q04DX003 (ip), vehicle: Klucel (hydroxypropylcellulose) (HPC)
smiles,measurement,setting,value
CNC(=O)OCCOC(=O)c1ccc(OC(=O)NC)cc1,T/C,"dose: 25.0 mg/kg/injection, schedule: Q01DX001 (ip), vehicle: carboxymethylcellulose (CMC)",109 % of control
same,T/C,"dose: 25.0 mg/kg/injection, schedule: Q01DX001 (ip), vehicle: other",96 % of control
same,T/C,"dose: 25.0 mg/kg/injection, schedule: Q01DX001 (ip), vehicle: saline",95 % of control
same,T/C,"dose: 45.0 mg/kg/injection, schedule: Q01DX001 (ip), vehicle: saline",91 % of control
same,T/C,"dose: 50.0 mg/kg/injection, schedule: Q01DX001 (ip), vehicle: carboxymethylcellulose (CMC)",93 % of control
same,T/C,"dose: 50.0 mg/kg/injection, schedule: Q01DX001 (ip), vehicle: other",100 % of control
same,T/C,"dose: 50.0 mg/kg/injection, schedule: Q01DX001 (ip), vehicle: saline",96 % of control
same,T/C,"dose: 67.0 mg/kg/injection, schedule: Q01DX001 (ip), vehicle: saline",100 % of control
same,T/C,"dose: 100.0 mg/kg/injection, schedule: Q01DX001 (ip), vehicle: carboxymethylcellulose (CMC)",103 % of control and 92 % of control
same,T/C,"dose: 100.0 mg/kg/injection, schedule: Q01DX001 (ip), vehicle: other",94 % of control
same,T/C,"dose: 100.0 mg/kg/injection, schedule: Q01DX001 (ip), vehicle: saline",95 % of control and 101 % of control and 202 % of control
same,T/C,"dose: 150.0 mg/kg/injection, schedule: Q01DX001 (ip), vehicle: saline",95 % of control
same,T/C,"dose: 200.0 mg/kg/injection, schedule: Q01DX001 (ip), vehicle: carboxymethylcellulose (CMC)",97 % of control and 101 % of control
same,T/C,"dose: 200.0 mg/kg/injection, schedule: Q01DX001 (ip), vehicle: other",96 % of control
same,T/C,"dose: 200.0 mg/kg/injection, schedule: Q01DX001 (ip), vehicle: saline",88 % of control and 90 % of control
same,T/C,"dose: 400.0 mg/kg/injection, schedule: Q01DX001 (ip), vehicle: carboxymethylcellulose (CMC)",97 % of control
same,T/C,"dose: 400.0 mg/kg/injection, schedule: Q01DX001 (ip), vehicle: saline",93 % of control and 90 % of control
CCN(CC)CCn1c2ccccc2c2cc3cnccc3c(C)c21,T/C,"dose: 18.75 mg/kg/injection, schedule: Q01DX009 (ip), vehicle: saline",109 % of control
same,T/C,"dose: 37.5 mg/kg/injection, schedule: Q01DX009 (ip), vehicle: saline",109 % of control
same,T/C,"dose: 37.5 mg/kg/injection, schedule: Q04DX003 (ip), vehicle: Klucel (hydroxypropylcellulose) (HPC)",106 % of control
same,T/C,"dose: 75.0 mg/kg/injection, schedule: Q01DX009 (ip), vehicle: saline",114 % of control
same,T/C,"dose: 75.0 mg/kg/injection, schedule: Q04DX003 (ip), vehicle: Klucel (hydroxypropylcellulose) (HPC)",105 % of control
same,T/C,"dose: 150.0 mg/kg/injection, schedule: Q01DX009 (ip), vehicle: saline",89 % of control
same,T/C,"dose: 150.0 mg/kg/injection, schedule: Q04DX003 (ip), vehicle: Klucel (hydroxypropylcellulose) (HPC)",87 % of control
C=CCO[Si](C=C)(OCC=C)OCC=C,T/C,"dose: 75.0 mg/kg/injection, schedule: Q01DX001 (ip), vehicle: other",116 % of control
same,T/C,"dose: 150.0 mg/kg/injection, schedule: Q01DX001 (ip), vehicle: other",95 % of control
same,T/C,"dose: 300.0 mg/kg/injection, schedule: Q01DX001 (ip), vehicle: other",94 % of control
CCCCCCCCc1c(C)nc(N)[nH]c1=O,T/C,"dose: 100.0 mg/kg/injection, schedule: Q04DX002 (ip), vehicle: Klucel (hydroxypropylcellulose) (HPC)",100 % of control
same,T/C,"dose: 200.0 mg/kg/injection, schedule: Q04DX002 (ip), vehicle: Klucel (hydroxypropylcellulose) (HPC)",100 % of control
same,T/C,"dose: 400.0 mg/kg/injection, schedule: Q04DX002 (ip), vehicle: Klucel (hydroxypropylcellulose) (HPC)",104 % of control
CCc1cnccc1C,T/C,"dose: 20.0 mg/kg/injection, schedule: Q04DX003 (ip), vehicle: Klucel (hydroxypropylcellulose) (HPC)",108 % of control
same,T/C,"dose: 25.0 mg/kg/injection, schedule: Q01DX009 (ip), vehicle: Klucel (hydroxypropylcellulose) (HPC)",102 % of control
same,T/C,"dose: 40.0 mg/kg/injection, schedule: Q04DX003 (ip), vehicle: Klucel (hydroxypropylcellulose) (HPC)",102 % of control
same,T/C,"dose: 50.0 mg/kg/injection, schedule: Q01DX009 (ip), vehicle: Klucel (hydroxypropylcellulose) (HPC)",107 % of control
same,T/C,"dose: 80.0 mg/kg/injection, schedule: Q04DX003 (ip), vehicle: Klucel (hydroxypropylcellulose) (HPC)",108 % of control
same,T/C,[1],111 % of control
same,T/C,[2],104 % of control
ClC(Cl)(Cl)c1ccn(-c2ccccc2)n1,T/C,"dose: 25.0 mg/kg/injection, schedule: Q01DX001 (ip), vehicle: Klucel (hydroxypropylcellulose) (HPC)",110 % of control
same,T/C,"dose: 50.0 mg/kg/injection, schedule: Q01DX001 (ip), vehicle: Klucel (hydroxypropylcellulose) (HPC)",100 % of control
same,T/C,"dose: 100.0 mg/kg/injection, schedule: Q01DX001 (ip), vehicle: Klucel (hydroxypropylcellulose) (HPC)",101 % of control and 110 % of control
O=c1[nH][nH]c(=O)n1O,T/C,"dose: 100.0 mg/kg/injection, schedule: Q01DX001 (ip), vehicle: saline with Tween-80",102 % of control
same,T/C,"dose: 100.0 mg/kg/injection, schedule: Q01DX009 (ip), vehicle: acetone",105 % of control
same,T/C,"dose: 100.0 mg/kg/injection, schedule: Q01DX009 (ip), vehicle: saline with Tween-80",91 % of control
same,T/C,"dose: 100.0 mg/kg/injection, schedule: Q01DX009 (ip), vehicle: saline",94 % of control and 92 % of control
same,T/C,"dose: 100.0 mg/kg/injection, schedule: Q04DX003 (ip), vehicle: saline with Tween-80",101 % of control and 109 % of control
same,T/C,"dose: 130.0 mg/kg/injection, schedule: Q01DX009 (ip), vehicle: saline",89 % of control
same,T/C,"dose: 200.0 mg/kg/injection, schedule: Q01DX001 (ip), vehicle: saline with Tween-80",106 % of control
same,T/C,"dose: 200.0 mg/kg/injection, schedule: Q01DX009 (ip), vehicle: saline with Tween-80",88 % of control
same,T/C,"dose: 200.0 mg/kg/injection, schedule: Q04DX003 (ip), vehicle: saline with Tween-80",102 % of control and 105 % of control
same,T/C,"dose: 300.0 mg/kg/injection, schedule: Q01DX009 (ip), vehicle: saline",98 % of control and 89 % of control
same,T/C,"dose: 400.0 mg/kg/injection, schedule: Q01DX001 (ip), vehicle: saline with Tween-80",104 % of control
same,T/C,"dose: 400.0 mg/kg/injection, schedule: Q01DX009 (ip), vehicle: acetone",88 % of control
same,T/C,"dose: 400.0 mg/kg/injection, schedule: Q01DX009 (ip), vehicle: saline",88 % of control
same,T/C,"dose: 400.0 mg/kg/injection, schedule: Q04DX003 (ip), vehicle: saline with Tween-80",98 % of control and 89 % of control
CC(O)c1cccc(NC(=O)NC2CCCCC2)c1 (stereo not drawn),T/C,[1],95 % of control
same,T/C,"dose: 200.0 mg/kg/injection, schedule: Q01DX009 (ip), vehicle: Klucel (hydroxypropylcellulose) (HPC)",101 % of control
same,T/C,"dose: 400.0 mg/kg/injection, schedule: Q01DX009 (ip), vehicle: Klucel (hydroxypropylcellulose) (HPC)",95 % of control
CCCCC(I)C(C)(C)[n+]1ccccc1 (stereo not drawn),T/C,"dose: 12.5 mg/kg/injection, schedule: Q01DX009 (ip), vehicle: saline with Tween-80",119 % of control
same,T/C,"dose: 12.5 mg/kg/injection, schedule: Q04DX003 (ip), vehicle: saline with Tween-80",100 % of control
same,T/C,"dose: 25.0 mg/kg/injection, schedule: Q01DX009 (ip), vehicle: saline with Tween-80",106 % of control
same,T/C,"dose: 25.0 mg/kg/injection, schedule: Q04DX003 (ip), vehicle: saline with Tween-80",96 % of control
same,T/C,"dose: 50.0 mg/kg/injection, schedule: Q01DX009 (ip), vehicle: saline with Tween-80",101 % of control
same,T/C,"dose: 50.0 mg/kg/injection, schedule: Q04DX003 (ip), vehicle: saline with Tween-80",100 % of control
C[Se]c1ncnc2c(C3OC(CO)C(O)C3O)[nH]nc12 (stereo not drawn),T/C,"dose: 3.12 mg/kg/injection, schedule: Q01DX005 (ip), vehicle: saline",106 % of control
same,T/C,"dose: 3.12 mg/kg/injection, schedule: Q01DX009 (ip), vehicle: saline",112 % of control
same,T/C,"dose: 6.25 mg/kg/injection, schedule: Q01DX005 (ip), vehicle: saline",109 % of control
same,T/C,"dose: 6.25 mg/kg/injection, schedule: Q01DX009 (ip), vehicle: saline",94 % of control
same,T/C,"dose: 12.5 mg/kg/injection, schedule: Q01DX005 (ip), vehicle: saline",104 % of control
same,T/C,"dose: 12.5 mg/kg/injection, schedule: Q01DX009 (ip), vehicle: saline",91 % of control
CCOC(=O)/C(C#N)=C1/CC2CCC1(C)OC2(C)C (stereo not drawn),T/C,[2],98 % of control
same,T/C,"dose: 200.0 mg/kg/injection, schedule: Q04DX003 (ip), vehicle: Klucel (hydroxypropylcellulose) (HPC)",96 % of control
same,T/C,"dose: 400.0 mg/kg/injection, schedule: Q04DX003 (ip), vehicle: Klucel (hydroxypropylcellulose) (HPC)",102 % of control
COc1ccc(CN(CC(=O)O)S(C)(=O)=O)cc1,T/C,"dose: 100.0 mg/kg/injection, schedule: Q01DX009 (ip), vehicle: other",110 % of control
same,T/C,"dose: 100.0 mg/kg/injection, schedule: Q04DX003 (ip), vehicle: other",90 % of control
same,T/C,"dose: 200.0 mg/kg/injection, schedule: Q01DX009 (ip), vehicle: other",107 % of control
same,T/C,"dose: 200.0 mg/kg/injection, schedule: Q04DX003 (ip), vehicle: other",98 % of control
same,T/C,"dose: 400.0 mg/kg/injection, schedule: Q01DX009 (ip), vehicle: other",111 % of control
same,T/C,"dose: 400.0 mg/kg/injection, schedule: Q04DX003 (ip), vehicle: other",95 % of control

# Source: PubChem BioAssay AID248 (DTP/NCI, 2004)
